Legend:
Conditions in all cases: SEM
DR1501 = DR1501 (Homo sapiens, UniProt P01903+P01911); assay type: binding
HLA-DR0101 = HLA-DR0101 (Homo sapiens, UniProt P01903+P01911, A100R/D57E/F55L/F60I/F76Y/I96L/L162R/M171V/P40L/Q125E/R42F/V115G/Y59C); test: biochemical
DR0301 = DR0301 (Homo sapiens, UniProt P01903+P01911, A100K/A102G/A103R/A169T/F55Y/I96L/K41T/L162R/M171V/P40S/Q125H/Q178H/Q39Y/R42S/S66N/T106N/W38E/Y61H); assay type: binding

IC50 (DR0301)	SMILES	IC50 (DR1501)	IC50 (HLA-DR0101)
	CC[C@H](C)[C@H](NC(=O)[C@H](CC(N)=O)NC(=O)[C@H](CCC(=O)O)NC(=O)[C@@H](NC(=O)[C@H](CC(C)C)NC(=O)[C@H](Cc1ccc(O)cc1)NC(=O)[C@H](Cc1c[nH]c2ccccc12)NC(=O)[C@H](CO)NC(=O)[C@H](CCCNC(=N)N)NC(=O)[C@H](CC(N)=O)NC(=O)[C@@H](N)CCC(=O)O)[C@@H](C)O)C(=O)N[C@@H](CCC(N)=O)C(=O)N[C@@H](CS)C(=O)N[C@@H](Cc1ccccc1)C(=O)N[C@@H](CC(C)C)C(=O)N1CCC[C@H]1C(=O)N[C@@H](CC(N)=O)C(=O)N1CCC[C@H]1C(=O)N[C@@H](C)C(=O)NCC(=O)O [FVIII581–600,593C]	56 ± 4 µM	50 ± 3 µM
50 ± 4 µM	CC[C@H](C)[C@H](NC(=O)[C@H](CC(N)=O)NC(=O)[C@@H](N)CCC(=O)O)C(=O)N[C@@H](CCC(N)=O)C(=O)N[C@@H](CCCNC(=N)N)C(=O)N[C@@H](Cc1ccccc1)C(=O)N[C@@H](CC(C)C)C(=O)N1CCC[C@H]1C(=O)N[C@@H](CC(N)=O)C(=O)N1CCC[C@H]1C(=O)N[C@@H](C)C(=O)NCC(=O)N[C@H](C(=O)N[C@@H](CCC(N)=O)C(=O)N[C@@H](CC(C)C)C(=O)N[C@@H](CCC(=O)O)C(=O)N[C@@H](CC(=O)O)C(=O)N1CCC[C@H]1C(=O)N[C@@H](CCC(=O)O)C(=O)N[C@@H](Cc1ccccc1)C(=O)O)C(C)C [FVIII589–608]		
